Data as given in US6372493B1, “Hormone-secreting cells maintained in long-term culture” (Pacific Biomedical Research, Inc. [Cell Mart, Inc.], priority 1991, dated 2002).

Key:
[1] = tested on: Ovarian follicular cells, lines 100B-OR-5A, 100B5-OR-B, 100B5-OR-D; experiment: 8-Br-cAMP / FSH stimulation of progesterone secretion by cultured follicular cells; type: cell-based, human; conditions: 1 mM 8-Br-cAMP, 24 hours
Experimental: (§1) Cells in SC-2 were propagated and sub-cultured as above more than 20 times. […] Quantitative radioimmune assays (RIA) were employed as described in Radioassay Systems in Clinical Endocrinology, 1981, Ed. G. E. Abraham, {Basel: Marcel Dekker}, pp. 475-529. Progesterone, testosterone, estradiol, prolactin, thyroid stimulating hormone and luteinizing hormone were assayed by the Coat-a-Count procedure (Diagnostic Products Corp., Los Angeles).
Ovarian follicular cells, lines 100B-OR-5A, 100B5-OR-B, and 100B5-OR-D, were established in culture as described in Example 1 and maintained and sub-cultured as described in Example 2. From these lines were created sub-cultures designated 1, 2, and 3 respectively, which were employed in the stimulation protocol described below.

[2] = tested on: Human pancreas cells at passage generation 47; experiment: Effect of amino acids on glucose stimulated insulin secretion (Example 20); type: cell-based; conditions: for insulin secretion, +10 mM alanine / insulin secretion, +20 mM arginine: 90 minutes
Experimental: Human pancreas cells at passage generation 47, were prepared for the experiment as described in Example 17 above. The cells were incubated in 6 parts PDM plus 1 part DMSS medium at a concentration of 10^5 cells/ml, at various concentrations of glucose. Alanine (10 mM) or arginine(20 mM) were added, and the cells were incubated for 90 minutes, at which time samples were collected for assay of insulin content.

human follicular cells = experiment: Long-term hormone secretion of follicular sub-cultures with added testosterone substrate (Example 2); type: cell-based; parameters: dose or concentration left out as unconfirmed; conditions: testosterone added as substrate for steroid production
Experimental: as §1, with “Angeles). Follicle-stimulating hormone and B-hCG were assayed by the SERONO MATAclone procedure (Serono, Italy).” for “Angeles).”
Conclusions: Using this method, human follicular cells were propagated in culture and transferred to serial subcultures which continued to proliferate and to secrete hormones.

Q: How did the Prog ([1]; culture 1) turn out when `Nc1ncnc2c1nc(Br)n2[C@@H]1O[C@@H]2COP(=O)(O)O[C@H]2[C@H]1O` [8-Br-cAMP] was run?
A: 24.5 ng/10^6 cells

Q: What about the Prog ([1]; culture 2) of the same compound?
A: 12.9 ng/10^6 cells

Q: And the Prog ([1]; culture 3)?
A: 20.8 ng/10^6 cells

Q: What does the source list for `C[C@H](N)C(=O)O` [alanine, Alanine]?
A: increase of insulin secretion over that stimulated by glucose alone ([2]; 10 mM alanine at 2 mM glucose): 1.25 fold; insulin secretion stimulated over the intermediate level of secretion ([2]; 10 mM alanine together with 1 mM glucose, 1.5 hours): approximately 1.13 fold; insulin secretion, +10 mM alanine ([2]; total 1 mM glucose): 103; insulin secretion, +10 mM alanine ([2]; total 2 mM glucose): 135; insulin secretion, +10 mM alanine ([2]; total 6 mM glucose): 127; insulin secretion, +10 mM alanine ([2]; total 11 mM glucose): 117; insulin secretion, +10 mM alanine ([2]; total 16 mM glucose): 101; insulin secretion, +10 mM alanine ([2]; total 22 mM glucose): 87

Q: `N=C(N)NCCC[C@H](N)C(=O)O` [arginine] was tested. Which “insulin secretion, +20 mM arginine” value ([2]; total 1 mM glucose) did it give?
A: 128

Q: And the “insulin secretion, +20 mM arginine” value ([2]; total 2 mM glucose)?
A: 134

Q: And the “insulin secretion, +20 mM arginine” value ([2]; total 6 mM glucose)?
A: 105

Q: What about the “insulin secretion, +20 mM arginine” value ([2]; total 11 mM glucose) of the same compound?
A: 93

Q: What about the “insulin secretion, +20 mM arginine” value ([2]; total 16 mM glucose) of the same compound?
A: 99

Q: What about the “insulin secretion, +20 mM arginine” value ([2]; total 22 mM glucose) of the same compound?
A: 94

Q: Which “time subcultures continued to secrete hormones after first placed in culture” value (human follicular cells) does the source give for `C[C@]12CC[C@H]3[C@@H](CCC4=CC(=O)CC[C@@]43C)[C@@H]1CC[C@@H]2O` [testosterone] here?
A: ≤ 16 months
